Measured values as given in patent US8889591B2, “Herbicidal compositions comprising 4-amino-3-chloro-5-fluoro-6-(4-chloro-2-fluoro-3-methoxyphenyl)pyridine-2-carboxylic acid or a derivative thereof and bromobutide, daimuron, oxaziclomefone or pyributicarb” (Dow Agrosciences LLC, priority 2012, dated 2014).

Tested on: LEFCH
Experiment: Postemergence foliar-applied greenhouse weed control, direct-seeded rice system
Assay type: in vivo, Leptochloa chinensis (L.) Nees
Source text: Seeds or nutlets of the desired test plant species were planted in a soil matrix prepared by mixing a loam or sandy loam soil (e.g., 28.6 percent silt, 18.8 percent clay, and 52.6 percent sand, with a pH of about 5.8 and an organic matter content of about 1.8 percent) and calcareous grit in an 80 to 20 ratio. The soil matrix was contained in plastic pots with a volume of 1 quart and a surface area of 83.6 square centimeters (cm^2). When required to ensure good germination and healthy plants, a fungicide treatment and/or other chemical or physical treatment was applied. The plants were grown for 8-22 days in a greenhouse with an approximate 14 h photoperiod which was maintained at about 29° C. during the day and 26° C. during the night. Nutrients (Peters Excel® 15-5-15 5-Ca 2-Mg and iron chelate) were applied in the irrigation solution as needed and water was added on a regular basis. Supplemental lighting was provided with overhead metal halide 1000-Watt lamps as necessary. The plants were employed for testing when they reached the first through fourth true leaf stage.
Treatments consisted of the acid or esters of 4-amino-3-chloro-5-fluoro-6-(4-chloro-2-fluoro-3-methoxy-phenyl)pyridine-2-carboxylic acid (Compound A), each formulated as an SC (suspension concentrate), and various herbicidal components alone and in combination. Forms of compound A were applied on an acid equivalent basis.
Other herbicidal components were applied on an active ingredient basis and included diamuron formulated as an EC (emulsifiable concentrate) and oxaziclomefone (technical grade material).
Treatment requirements were calculated based upon the rates being tested, the concentration of active ingredient or acid equivalent in the formulation, and a 12 mL application volume at a rate of 187 L/ha.
For treatments comprised of formulated compounds, measured amounts of compounds were placed individually in 25 mL glass vials and diluted in a volume of 1.25% (v/v) Agri-Dex® crop oil concentrated to obtain 12× stock solutions. […] Application solutions were prepared by adding an appropriate amount of each stock solution (e.g., 1 mL) and diluted to the appropriate final concentrations with the addition of 10 mL of an aqueous mixture of 1.25% (v/v) crop oil concentrate so that the final spray solutions contained 1.25+/−0.05% (v/v) crop oil concentrate.
For treatments comprised of technical compounds, weighed amounts can be placed individually in 25 mL glass vials and dissolved in a volume of 97:3 v/v acetone/DMSO to obtain 12× stock solutions. […] Application solutions can be prepared by adding an appropriate amount of each stock solution (e.g., 1 mL) and diluted to the appropriate final concentrations with the addition of 10 mL of an aqueous mixture of 1.5% (v/v) crop oil concentrate so that the final spray solutions contain 1.25% (v/v) crop oil concentrate. When technical materials are used, the concentrated stock solutions can be added to the spray solutions so that the final acetone and DMSO concentrations of the application solutions are 16.2% and 0.5%, respectively.
For treatments comprised of formulated and technical compounds, weighed amounts of the technical materials were placed individually in 25 mL glass vials and dissolved in a volume of 97:3 v/v acetone/DMSO to obtain 12× stock solutions, and measured amounts of the formulated compounds were placed individually in 25 mL glass vials and diluted in a volume of 1.5% (v/v) crop oil concentrate or water to obtain 12× stock solutions. […] Application solutions were prepared by adding an appropriate amount of each stock solution (e.g., 1 mL) and diluted to the appropriate final concentrations with the addition of an appropriate amount of an aqueous mixture of 1.5% (v/v) crop oil concentrate so that the final spray solutions contained 1.25% (v/v) crop oil concentrate. […]

For `COc1c(Cl)ccc(-c2nc(C(=O)OCc3ccccc3)c(Cl)c(N)c2F)c1F` [Compound A Benzyl Ester], the “Visual Weed Control (%) - 20 DAA LEFCH Obs” value (from here on “Visual Weed Control (%)”) (Compound A Benzyl Ester 4.38 gae/ha alone) was 10%, the “Visual Weed Control (%)” value (Compound A Benzyl Ester 8.75 gae/ha alone) was 20% and the “Visual Weed Control (%)” value (Compound A Benzyl Ester 17.5 gae/ha alone) was 50%.
